This note sets out measurements from US11091428B2 (HAPLOGEN GMBH, priority 2016, dated 2021).

In experiment [1] the target is T1, PLA2G16 (Homo sapiens, UniProt P53816).
T1 construct: Hexa-His (N); made in house; host or cells: E. coli BL21(DE3)
T1 sequence (P53816 1-162): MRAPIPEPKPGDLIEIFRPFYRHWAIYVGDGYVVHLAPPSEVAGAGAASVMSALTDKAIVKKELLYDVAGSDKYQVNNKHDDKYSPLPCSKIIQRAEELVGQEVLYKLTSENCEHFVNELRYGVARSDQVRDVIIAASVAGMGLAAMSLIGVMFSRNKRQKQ
Briefly: Enzyme activity assay for PLA2G16 (Red/Green BODIPY PC-A2 fluorescence). Type of experiment: biochemical. The settings on record: His-tagged PLA2G16, 4 min pre-incubation, 2 nM to 50 μM; read-out: IC50 values of the compounds determined in the enzyme activity assay for PLA2G16. In short, it runs like this: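 IC50 from non-linear fits of fluorescence rise (480/530 nm, 10 min) after adding Red/Green BODIPY PC-A2 mixed with DOPC/DOPG/cholesterol liposomes. Recombinant His-tagged human enzyme, bacterially expressed, was first exposed to inhibitor (2 nM–50 μM final) for 4 min in 50 mM Tris pH 8.5, 100 mM NaCl, 5 mM glutathione.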

The test system of experiment [2] is picornaviruses (CVB1, HRV-A2, HRV-A23, EV-68). The experiment is described as follows: Anti-picornavirus cytopathic effect (CPE) reduction assay on HeLa H1 cells. Type of experiment: cell-based. Particulars: HeLa H1 cells, 48 h, category from averaging the EC50 values from four picornaviruses (CVB1, HRV-A2, HRV-A23, EV68), read-out: EC50 values of the compounds determined in the anti-picornavirus assay. Summed up:
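Cytopathic-effect protection: EC50 from non-linear regression of cell viability (CellTiterBlue, 560/590 nm) 48 h post-infection, scaled between infected and mock-infected vehicle wells. Compound dilutions added to HeLa H1 cells 2 h before virus (MOI causing complete CPE within 2 days), in DMEM + 2% FBS; categories average the four viruses.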
(Damage to the host cells serves as the signal in cytopathic effect assays.)

Read-outs that look alike come from different tables or passages of the source.

A word on the IC50: it is the point on the concentration scale where inhibition reaches its midpoint. By EC50 is commonly meant the concentration at which the effect is half-maximal. For `COc1ccccc1S(=O)(=O)NC(C)C(=O)C(=O)NCC1CC1` (centres unmarked) [FP 220, N-(Cyclopropylmethyl)-3-(2-methoxybenzenesulfonamido)-2-oxobutanamide], the IC50 in experiment [1] was less than 1000 nM. Also, the EC50 in experiment [2] (Enterovirus B, HeLa H1, 48 h) fell in the range of 1000 to 10000 nM.
The like results for `COC(=O)CNC(=O)C(=O)C(C)N(C=O)Cc1ccccc1` (centres unmarked) [FP 56, Methyl 2-[3-(N-benzylformamido)-2-oxobutanamido]acetate] were, in that order, less than 1000 nM and more than 10000 nM.
The like results for `COc1ccccc1N(C=O)C(C)C(=O)C(=O)NCc1ccc(Cl)cc1` (centres unmarked) [FP 91, N-[(4-Chlorophenyl)methyl]-3-[N-(2-methoxyphenyl)formamido]-2-oxobutanamide] were, in that order, less than 1000 nM and less than 1000 nM.
The like results for `CC(C)NC(=O)C(=O)C(C)OCc1ccccc1` (centres unmarked) [FP 136, 3-(Benzyloxy)-2-oxo-N-(propan-2-yl)butanamide] were, in that order, less than 1000 nM and less than 1000 nM.
For `COCCC(C(=O)C(=O)NCC1CC1)N(C=O)Cc1ccccc1` (centres unmarked) [FP 70, 3-(N-Benzylformamido)-MN-(cyclopropylmethyl)-5-methoxy-2-oxopentanamide], in experiment [1], the IC50 is less than 1000 nM. Besides, the EC50 in experiment [2] (Enterovirus B, HeLa H1, 48 h) lay in the range of 1000 to 10000 nM.
The like results for `CC(NC(=O)c1ccccc1Br)C(=O)C(=O)NCC1CC1` (centres unmarked) [FP 166, 3-[(2-Bromophenyl)formamido]-N-(cyclopropylmethyl)-2-oxobutanamide] were, in that order, less than 1000 nM and 1000 to 10000 nM.
The like results for `CC(=O)NCCCCCCCNC(=O)C(=O)C1CCC(=O)N1Cc1ccccc1` (centres unmarked) [FP 326, 2-(1-Benzyl-5-oxopyrrolidin-2-yl)-N-(7-acetamidoheptyl)-2-oxoacetamide] were, in that order, less than 1000 nM and 1000 to 10000 nM.
The like results for `CC(C)S(=O)(=O)N1CCC(NC(=O)C(=O)[C@H]2CCC(=O)N2Cc2ccccc2)CC1` [FP 323, 2-[(2R)-1-Benzyl-5-oxopyrrolidin-2-yl]-2-oxo-N-[1-(propane-2-sulfonyl)piperidin-4-yl]acetamide] were, in that order, less than 1000 nM and less than 1000 nM.
For the compound `CC(NC(=O)c1ccc(Cl)cc1)C(=O)C(=O)NCC1CC1` (centres unmarked) [FP 170, 3-[(4-Chlorophenyl)formamido]-N-(cyclopropylmethyl)-2-oxobutanamide], the IC50 in experiment [1] was less than 1000 nM. For the same compound, the EC50 in experiment [2] (Enterovirus B, HeLa H1, 48 h) lay in the range of 1000 to 10000 nM.
Turning to `CC1CC(=O)N(Cc2ccccc2)[C@@H]1C(=O)C(=O)NC1CC1` (single isomer, unassigned) [FP 339], the IC50 in experiment [1] is 1000 to 10000 nM. In addition, the EC50 in experiment [2] is more than 10000 nM.
Turning to `CC(C(=O)C(=O)NCC1CCCCC1)N(C=O)C1CCCCC1` (centres unmarked) [FP 52, 3-(N-Cyclohexylformamido)-N-(cyclohexylmethyl)-2-oxobutanamide], the IC50 in experiment [1] was less than 1000 nM. In addition, the EC50 in experiment [2] (Enterovirus B, HeLa H1, 48 h) was less than 1000 nM.
`CC(C)CNC(=O)C(=O)C(C)N(C=O)C1CCCCC1` (centres unmarked) [FP 15, 3-(N-Cyclohexylformamido)-N-(2-methylpropyl)-2-oxobutanamide]: the IC50 in experiment [1] is less than 1000 nM. Moreover, in experiment [2] (Enterovirus B, HeLa H1, 48 h), the EC50 is less than 1000 nM.
Regarding `O=C(NCCc1ccncc1)C(=O)C1CCC(=O)N1Cc1ccccc1` (centres unmarked) [FP 226, 2-(1-Benzyl-5-oxopyrrolidin-2-yl)-2-oxo-N-[2-(pyridin-4-yl)ethyl]acetamide], the IC50 in experiment [1] was less than 1000 nM. Moreover, in experiment [2] (Enterovirus B, HeLa H1, 48 h), the EC50 lay within 1000 to 10000 nM.
The like results for `CC(C(=O)C(=O)NCC1CCCCC1)N(C=O)c1cc[nH]c(=O)c1` (centres unmarked) [FP 192, N-(Cyclohexylmethyl)-2-oxo-3-[N-(2-oxo-1,2-dihydropyridin-4-yl)formamido]butanamide] were, in that order, less than 1000 nM and more than 10000 nM.
Take `O=C(NCCNC(=O)C1CCC1)C(=O)[C@H]1CCC(=O)N1Cc1ccccc1` [FP 332, 2-[(2R)-1-Benzyl-5-oxopyrrolidin-2-yl]-N-[2-(cyclobutylformamido)ethyl]-2-oxoacetamide]: the IC50 in experiment [1] is less than 1000 nM. Moreover, the EC50 in experiment [2] (Enterovirus B, HeLa H1, 48 h) was in the range of 1000 to 10000 nM.
As to `COc1ccccc1N(C=O)C(C)C(=O)C(=O)NCc1cccc(Cl)c1` (centres unmarked) [FP 1, N-[(3-Chlorophenyl)methyl]-3-[N-(2-methoxyphenyl)formamido]-2-oxobutanamide], the IC50 in experiment [1] is less than 1000 nM. Moreover, the EC50 in experiment [2] (Enterovirus B, HeLa H1, 48 h) is less than 1000 nM.
Regarding `C[C@@H]1CC(=O)N(Cc2ccccc2)[C@@H]1C(=O)C(=O)NCC1CC1` (single isomer, unassigned) [FP 335], the 50% inhibitory concentration (IC50) in experiment [1] is less than 1000 nM. For the same compound, the EC50 in experiment [2] (Enterovirus B, HeLa H1, 48 h) was in the range of 1000 to 10000 nM.
The like results for `O=C(NC1CC1)C(=O)C1CCC(=O)N1Cc1ccc(Cl)cc1F` (centres unmarked) [FP 234, 2-{1-[(4-Chloro-2-fluorophenyl)methyl]-5-oxopyrrolidin-2-yl}-N-cyclopropyl-2-oxoacetamide] were, in that order, less than 1000 nM and 1000 to 10000 nM.
With `O=C(NCCCc1nccs1)C(=O)C1CCC(=O)N1Cc1ccccc1` (centres unmarked) [FP 229, 2-(1-Benzyl-5-oxopyrrolidin-2-yl)-2-oxo-N-[3-(1,3-thiazol-2-yl)propyl]acetamide], the IC50 in experiment [1] is less than 1000 nM. Further, the EC50 in experiment [2] (Enterovirus B, HeLa H1, 48 h) was less than 1000 nM.
Turning to `CC(C(=O)C(=O)NCc1cccc(Cl)c1)N(C=O)C1CCOCC1` (centres unmarked) [FP 22, N-[(3-Chlorophenyl)methyl]-3-[N-(oxan-4-yl)formamido]-2-oxobutanamide], the IC50 in experiment [1] is less than 1000 nM. Further, the EC50 in experiment [2] (Enterovirus B, HeLa H1, 48 h) fell in the range of 1000 to 10000 nM.
The like results for `CCOCCOCCNC(=O)C(=O)[C@H]1CCC(=O)N1Cc1ccccc1` [FP 302, 2-[(2R)-1-Benzyl-5-oxopyrrolidin-2-yl]-N-[2-(2-ethoxyethoxy)ethyl]-2-oxoacetamide] were, in that order, less than 1000 nM and 1000 to 10000 nM.
The like results for `COc1ccccc1N(C=O)C(C)C(=O)C(=O)NC(C)(C)C` (centres unmarked) [FP 75, N-tert-Butyl-3-[N-(2-methoxyphenyl)formamido]-2-oxobutanamide] were, in that order, less than 1000 nM and 1000 to 10000 nM.
For `COc1ccccc1N(C(=O)C(C)C)C(C)C(=O)C(=O)NCc1cccc(Cl)c1` (centres unmarked) [FP 142, N-[(3-Chlorophenyl)methyl]-3-[N-(2-methoxyphenyl)-2-methylpropanamido]-2-oxobutanamide], the IC50 in experiment [1] is less than 1000 nM. Also, in experiment [2] (Enterovirus B, HeLa H1, 48 h), the EC50 is 1000 to 10000 nM.
The like results for `CC(C)NC(=O)C(=O)C(C)OC1CCCCC1` (centres unmarked) [FP 125, 3-(Cyclohexyloxy)-2-oxo-N-(propan-2-yl)butanamide] were, in that order, 1000 to 10000 nM and 1000 to 10000 nM.
The like results for `CC(C)(O)CNC(=O)C(=O)C1CCC(=O)N1Cc1ccc(Cl)cc1` (centres unmarked) [FP 274, 2-{1-[(4-Chlorophenyl)methyl]-5-oxopyrrolidin-2-yl}-N-(2-hydroxy-2-methylpropyl)-2-oxoacetamide] were, in that order, less than 1000 nM and 1000 to 10000 nM.
The like results for `CC(C)CC(OCC1CCOCC1)C(=O)C(=O)NCC1CC1` (centres unmarked) [FP 130, N-(Cyclopropylmethyl)-5-methyl-3-[(oxan-4-yl)methoxy]-2-oxohexanamide] were, in that order, less than 1000 nM and 1000 to 10000 nM.
In the case of `CC(OCC1CC1)C(=O)C(=O)NCC1CC1` (centres unmarked) [FP 134, 3-(Cyclopropylmethoxy)-N-(cyclopropylmethyl)-2-oxobutanamide], in experiment [1], the IC50 is less than 1000 nM. Besides, the EC50 in experiment [2] (Enterovirus B, HeLa H1, 48 h) fell in the range of 1000 to 10000 nM.
The like results for `CC(NS(=O)(=O)c1ccccc1)C(=O)C(=O)NCC1CCCCC1` (centres unmarked) [FP 218, 3-Benzenesulfonamido-N-(cyclohexylmethyl)-2-oxobutanamide] were, in that order, less than 1000 nM and 1000 to 10000 nM.
The like results for `NC(=O)c1ccc(CN2C(=O)CCC2C(=O)C(=O)NCC2CCCCC2)cc1` (centres unmarked) [FP 252, 4-[(2-{[(Cyclohexylmethyl)carbamoyl]carbonyl}-5-oxopyrrolidin-1-yl)methyl]benzamide] were, in that order, less than 1000 nM and 1000 to 10000 nM.
The like results for `COc1ccccc1N(C=O)C(C)C(=O)C(=O)NCc1ccccn1` (centres unmarked) [FP 96, 3-[N-(2-Methoxyphenyl)formamido]-2-oxo-N-[(pyridin-2-yl)methyl]butanamide] were, in that order, less than 1000 nM and more than 10000 nM.
On to `O=C(NCC1CC1)C(=O)C1CCC(=O)N1CCc1ccccc1` (centres unmarked) [FP 253, N-(Cyclopropylmethyl)-2-oxo-2-[5-oxo-1-(2-phenylethyl)pyrrolidin-2-yl]], for which, in experiment [1], the IC50 is less than 1000 nM. The EC50 in experiment [2] (Enterovirus B, HeLa H1, 48 h) is 1000 to 10000 nM.
The like results for `CC(C)CC(C(=O)C(=O)NCC1CC1)N(C=O)C[C@@H]1CCOC1` (stereo partly drawn) [FP 64, N-(Cyclopropylmethyl)-5-methyl-2-oxo-3-(N{[(3S)-oxolan-3-yl]methyl}formamido) hexanamide] were, in that order, less than 1000 nM and 1000 to 10000 nM.
For `O=C(NC1CC(F)C1)C(=O)[C@H]1CCC(=O)N1Cc1ccccc1` (stereo partly drawn) [FP 294, 2-[(2R)-1-Benzyl-5-oxopyrrolidin-2-yl]-N-(3-fluorocyclobutyl)-2-oxoacetamide], the IC50 in experiment [1] is less than 1000 nM. In experiment [2] (Enterovirus B, HeLa H1, 48 h), the EC50 was less than 1000 nM.
Take `CCC(=O)N(c1ccccc1OC)C(C)C(=O)C(=O)NCc1cccc(Cl)c1` (centres unmarked) [FP 141, N-[(3-Chlorophenyl)methyl]-3-[N-(2-methoxyphenyl)propanamido]-2-oxobutanamide]: the IC50 in experiment [1] is less than 1000 nM. Moreover, the EC50 in experiment [2] (Enterovirus B, HeLa H1, 48 h) is 1000 to 10000 nM.
